As usually defined, the Ki is a measure of affinity in units of concentration, obtained from inhibition or displacement. As usually defined, the half-life is how long it takes for the measured level to halve. Higher therefore signals slow decline. What is called logP is the decadic logarithm of the partition coefficient of the neutral form, usually between octanol and water. A high value points to higher lipophilicity.

The values that follow come from ChEMBL document CHEMBL1138129, “A novel nicotinic acetylcholine receptor antagonist radioligand for PET studies” (Bioorg Med Chem Lett, 2006).

The target of data set [1] is Neuronal acetylcholine receptor; alpha4/beta2 (Homo sapiens, UniProt P17787+P43681). The experiment in a line: Displacement of [3H]epibatidine from alpha-4-beta-2 ACHR. The class given is protein-complex assay. Background: Displacement assays read how much labelled ligand stays bound in the presence of the test substance.
The nature of data set [2]: Protein binding in baboon plasma. In kind it is ADME, Papio. Conditions: read-out: PPB (converted).
Data set [3] in a line: Half life of the compound. The class given is ADME.
Data set [4] in a line: Lipophilicity as measured by Log P. The class given is physicochemical. The note with it: octanol/water.

Structures are written as SMILES.

Chain of Neuronal acetylcholine receptor; alpha4/beta2 (P17787 whole entry): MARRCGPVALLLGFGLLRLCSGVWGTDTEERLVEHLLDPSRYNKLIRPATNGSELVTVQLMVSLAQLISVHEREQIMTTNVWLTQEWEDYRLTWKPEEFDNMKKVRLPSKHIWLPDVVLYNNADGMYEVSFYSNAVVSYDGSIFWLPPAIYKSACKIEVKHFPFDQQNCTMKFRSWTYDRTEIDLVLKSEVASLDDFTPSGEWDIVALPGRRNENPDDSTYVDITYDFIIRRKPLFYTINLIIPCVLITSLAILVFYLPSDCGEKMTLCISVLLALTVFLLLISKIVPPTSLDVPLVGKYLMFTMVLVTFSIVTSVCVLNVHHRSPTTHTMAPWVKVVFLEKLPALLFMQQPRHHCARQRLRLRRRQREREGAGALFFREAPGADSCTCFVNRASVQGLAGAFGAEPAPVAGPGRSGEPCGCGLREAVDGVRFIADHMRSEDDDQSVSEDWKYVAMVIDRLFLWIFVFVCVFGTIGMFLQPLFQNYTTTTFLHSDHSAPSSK
Chain of Neuronal acetylcholine receptor; alpha4/beta2 (P43681 whole entry): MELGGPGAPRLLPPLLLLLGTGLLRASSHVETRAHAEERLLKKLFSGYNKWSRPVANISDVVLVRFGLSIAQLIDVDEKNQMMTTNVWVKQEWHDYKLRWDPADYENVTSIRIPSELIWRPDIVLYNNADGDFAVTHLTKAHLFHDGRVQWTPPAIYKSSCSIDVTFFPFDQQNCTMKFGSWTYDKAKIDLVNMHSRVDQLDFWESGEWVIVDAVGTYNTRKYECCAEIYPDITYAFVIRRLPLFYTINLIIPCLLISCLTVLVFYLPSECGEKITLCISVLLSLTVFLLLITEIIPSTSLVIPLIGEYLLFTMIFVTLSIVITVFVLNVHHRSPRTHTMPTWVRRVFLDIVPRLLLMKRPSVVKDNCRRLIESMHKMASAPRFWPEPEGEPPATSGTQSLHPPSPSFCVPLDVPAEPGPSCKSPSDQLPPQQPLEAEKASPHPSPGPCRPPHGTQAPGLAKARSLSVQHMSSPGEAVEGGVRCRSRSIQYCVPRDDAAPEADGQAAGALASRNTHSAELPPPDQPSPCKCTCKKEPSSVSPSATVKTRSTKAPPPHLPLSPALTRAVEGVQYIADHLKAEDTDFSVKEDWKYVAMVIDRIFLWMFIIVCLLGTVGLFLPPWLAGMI

As for `[11CH3]N1C2CCC1C(c1cncc(I)c1)C2` (centres undefined), the affinity in data set [1] corresponds to a Ki of 29 nM. For the same compound, the fraction unbound in data set [2] is 0.6. The half-life in data set [3] worked out at 1 h. This compound gave a logP in data set [4] of 1.09.
